This note sets out measurements from patent publication US20060159617A1, “Small technetium-99m and rhenium labeled agents and methods for imaging tissues, organs and tumors” (priority 2002, published 2006).

In one test the target is T1, σ1 receptor (Cavia porcellus, UniProt Q60492).
T1 construct: The membranes were prepared from guinea pig brain (minus cerebellum) as described above; from tissue; host or cells: guinea pig brain (minus cerebellum) membranes
Put plainly: Sigma-1 receptor competition binding assay with [3H]-(+)-pentazocine. On the set-up: species or system guinea pig. Conditions: apparent Ki (Cheng-Prusoff), brain membranes. The method, then:
The in vitro σ1 receptor binding affinities of rhenium coordinated complexes were determined in a competition assay using […] and high-affinity σ1 ligand [3H]-(+)-pentazocine (28 Ci/mmol, NEN Life Science Inc., Cambridge, Mass.). See, Mol. Neuropharmacol. 1993, 3, 117-126.
The membranes were prepared from guinea pig brain (minus cerebellum) as described above and stored at −70 ° C. Twelve concentrations of the nonradioactive rhenium complexes ranging from 1×10^−11 to 1×10^−3 and protein samples (0.15 mg of membrane protein) were incubated with […] [3H]-(+)-pentazocine in a total volume of 0.25 mL of Tris-HCl (50 mM, pH 8.0). Incubations were carried out for 120 min at 25° C. All assays were terminated by dilution with 5 mL of ice-cold Tris-HCl (10 mM), pH 8.0, and solution were filtered through glass-fiber filters (Whatman GF/F; presoaked in 0.5% polyethyleneimine for 30 min at 25° C.). Filters were then washed three times with 5 mL of ice-cold Tris-HCl (50 mM, pH 8.0), and counted in Hionic-Fluor cocktail (Packard, Groningen, the Netherlands). The corresponding IC50 values were determined with Origin 6.0 software (OriginLab, Northampton, Mass.) and were used for the calculation of the apparent Ki values with the Cheng-Prusoff equation. See, Biochem. Pharmacol. 1973, 22, 3099-3108.

In the next test the target is T2, σ2 receptor (Rattus norvegicus, UniProt Q5U3Y7).
T2 construct: Rat liver membranes were prepared from male Sprague-Dawley rat livers as previously described; from tissue; host or cells: male Sprague-Dawley rat liver membranes
T2 sequence (Q5U3Y7 1-176): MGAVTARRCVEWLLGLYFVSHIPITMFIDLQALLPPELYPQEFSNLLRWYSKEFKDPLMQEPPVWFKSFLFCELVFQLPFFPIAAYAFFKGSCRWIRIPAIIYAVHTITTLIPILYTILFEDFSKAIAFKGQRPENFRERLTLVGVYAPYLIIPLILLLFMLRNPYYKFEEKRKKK
Nature of the test: σ2 receptor competition binding assay with [3H]-DTG, σ1 masked. Particulars: apparent Ki, rat liver membranes. The procedure: Rat liver membranes were prepared from male Sprague-Dawley rat livers as previously described (Eur. J. Pharmacol.—Mol. Pharmacol. Sect. 1994, 268, 9-18). The in vitro σ2 receptor binding affinities of rhenium coordinated complexes were determined in a competition assay using rat livers and [^3H]-DTG (31 Ci/mmol, NEN Life Science Inc., Cambridge, Mass.) as radioligand in the presence of 10 μM 1-pyrrolidinylethyl 3,4-dichlorophenylacetate oxalate (ACT915 oxalate) to mask σ1 receptors (Bioorg. & Med. Chem. Lett. 2000, 10, 17-18). Competition assays were performed with twelve concentrations of the nonradioactive rhenium complexes ranging from 1×10^−10 to 1×10^−3 and protein samples (0.15 mg of membrane protein) in a total volume of 0.25 mL of Tris-HCl (50 mM, pH 8.0) for 120 min at 25° C. All other manipulations and data analysis were performed as described vide supra for the σ1-receptor assays.

The next test deals with α1 receptor. Put plainly: Alpha-1 receptor competition binding assay with [3H]-Prazosin. Conditions: apparent Ki, rat frontal cortex. The procedure: The in vitro α1 receptor binding affinities of rhenium coordinated complexes were determined in a competition assay using rat frontal cortex and high-affinity α1 ligand [^3H]-Prazosin (80 Ci/mmol, NEN Life Science Inc., Cambridge, Mass.). See, Eur. J. Nucl. Med. 2002, 29, 82-87.
(§1) The frontal cortex of rat brain was prepared as described above and store at −70° C. until used in the binding assays. Ten concentrations of the nonradioactive rhenium complexes ranging from 1×10^−10 to 1×10^−3 and protein samples (0.15 mg of membrane protein) were incubated with 1.5 nM [^3H]-Prazosin in a total volume of 0.25 mL of Tris-HCl (50 mM, pH 7.4, 10 mM MgSO4). Incubations were carried out for 60 min at 25° C. All assays were terminated by dilution with 5 mL of ice-cold Tris-HCl (10 mM), pH 7.4, and solution were filtered through glass-fiber filters (Whatman GF/F; presoaked in 0.5% polyethyleneimine for 30 min at 25° C.). Filters were then washed three times with 5 mL of ice-cold Tris-HCl (50 mM, pH 7.4), and counted in Hionic-Fluor cocktail (Packard, Groningen, the Netherlands). The corresponding IC50 values were determined with Origin 6.0 software (OriginLab, Northampton, Mass.) and were used for the calculation of the apparent Ki values with the Cheng-Prusoff equation. See, Biocheni. Pharmacol. 1973, 22, 3099-3108.

In the next test the target is T3, 5HT1A receptor (Rattus norvegicus, UniProt P19327).
T3 construct: The brains were rapidly removed, and hippocampus, frontal cortex, hypothalamus, and striatum were hand-dissected on ice; from tissue; host or cells: male Sprague-Dawley rat hippocampus membranes
T3 sequence (P19327 1-422): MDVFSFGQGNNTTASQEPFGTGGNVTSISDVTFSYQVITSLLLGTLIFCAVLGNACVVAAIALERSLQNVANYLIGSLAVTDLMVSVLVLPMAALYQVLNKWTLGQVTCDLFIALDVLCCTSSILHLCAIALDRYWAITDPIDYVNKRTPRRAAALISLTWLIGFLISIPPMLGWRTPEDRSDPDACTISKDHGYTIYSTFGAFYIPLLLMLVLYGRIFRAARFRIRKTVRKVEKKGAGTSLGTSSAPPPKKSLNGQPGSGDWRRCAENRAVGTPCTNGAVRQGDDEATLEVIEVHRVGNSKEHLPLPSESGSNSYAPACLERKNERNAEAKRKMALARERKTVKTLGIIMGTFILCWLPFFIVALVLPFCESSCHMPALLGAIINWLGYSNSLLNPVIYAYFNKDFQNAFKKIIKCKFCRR
Put plainly: 5HT1A receptor competition binding assay with [3H]-8-OH-DPAT. Particulars: apparent Ki, rat hippocampus. The method, then: The in vitro 5HT1A binding affinities of rhenium coordinated complexes were determined in a competition assay using rat hippocampus and high-affinity 5HT1A-ligand [^3H]-8-OH-DPAT (135 Ci/mmol, NEN Life Science Inc., Cambridge, Mass.). See, Brain Res. 1995, 673, 217-225.
Male Sprague-Dawley rats (weighing 150-170 g) were sacrificed using anesthesia agent isoflurane. The brains were rapidly removed, and hippocampus, frontal cortex, hypothalamus, and striatum were hand-dissected on ice and stored at −70° C. Tissue was thawed at room temperature and homogenized using a Brinkmann Polytron tissue disrupter in 50 volumes (wt/vol) of ice-cold 50 mM Tris-HCl buffer (pH 7.4). The suspension was centrifuged twice at 27,000 g for 20 min at 4° C. The membrane pellets were resuspended in 50 volumes of (wt/vol) Tris-HCl buffer and incubated at 37° C. for 20 min in a water bath, before a final centrifugation step (27,000 g; 20 min; 4° C.). The final tissue pellets were stored at −70° C. until assayed.
as §1, with “Twelve” for “The frontal cortex of rat brain was prepared as described above and store at −70° C. until used in the binding assays. Ten”, “1×10^−11” for “1×10^−10”, “1×10^−4” for “1×10^−3”, “[^3H]-8-OH-DPAT” for “[^3H]-Prazosin”, “Biochem.” for “Biocheni.”

T1 sequence (Q60492 whole entry): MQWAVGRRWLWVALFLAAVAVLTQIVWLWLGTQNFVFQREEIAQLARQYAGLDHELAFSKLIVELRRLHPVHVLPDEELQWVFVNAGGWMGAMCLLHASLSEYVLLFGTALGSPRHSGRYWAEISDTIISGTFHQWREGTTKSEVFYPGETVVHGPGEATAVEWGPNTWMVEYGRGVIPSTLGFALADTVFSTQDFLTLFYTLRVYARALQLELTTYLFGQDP

As to `O=C1CN(CCCN2CCC(c3ccccc3)CC2)CC[S][Re]2(=[O])[S]CC[N]12` (stereo not shown) [Re-21], the Ki on σ1 receptor was 0.553 µM; on σ2 receptor it was 0.0846 ± 0.0079 µM; on α1 receptor, 0.039 ± 0.004 µM; on 5HT1A receptor it was 0.0557 ± 0.0083 µM.
